≈ marks a conversion by molar mass, not a printed value.
Conditions: for aqueous solubility: pH 6.8

Row | Structure (SMILES) | MDR1-MDCK efflux ratio | intrinsic clearance, human liver microsomes | intrinsic clearance, rat liver microsomes | fraction unbound, human plasma | fraction unbound, rat plasma | aqueous solubility
1 | O=C(Nc1nnc(SCc2ccc(F)cc2)s1)C1CCC1 | 0.689 | 52 mL/min/kg | 1650 mL/min/kg |  |  | 
2 | O=C(Nc1nc2c(s1)COc1ccccc1-2)c1cnc(Cl)c(Cl)c1 | 1.02 | 33.8 mL/min/kg | 279 mL/min/kg |  |  | 3.7 µg/mL (≈ 9.78 µM)
3 | COCCN(C)c1ccc(CN2CCc3nn(C)c(=O)cc3C2)cn1 | 3.02 | ≤ 4.74 mL/min/kg | 22 mL/min/kg |  |  | 
4 | Cc1cccnc1CN1CCC(O)(c2ccccc2)CC1 | 0.958 | 4.93 mL/min/kg | 684 mL/min/kg |  |  | 
5 | CC(=O)NCCOc1ccc2ccccc2n1 |  | 12.9 mL/min/kg | 89.1 mL/min/kg |  |  | 
6 | CC1CCC(NC(=O)c2oc3ccccc3c2CS(C)=O)CC1 (configuration not stated) | 2.52 | 15.2 mL/min/kg | 154 mL/min/kg |  |  | 68.8 µg/mL (≈ 206 µM)
7 | CCc1noc(COc2c(C)ccnc2Cl)n1 |  |  |  |  |  | 23.3 µg/mL (≈ 91.8 µM)
8 | CNc1ccc(/C=C/c2ccc(OCCOCCOCCF)nc2)cc1 | 0.533 | 253 mL/min/kg | 564 mL/min/kg |  |  | 
9 | CCCS(=O)(=O)NC1CCN(Cc2ccc(C)c(OC)c2)CC1 | 1.43 | 16.5 mL/min/kg | 798 mL/min/kg |  |  | 
10 | Cc1ncc(CN(C)c2nnc(C)c(C)c2C#N)s1 |  |  |  |  |  | 28.6 µg/mL (≈ 105 µM)
11 | Cc1nc(Cl)cc(Nc2cnn(C(C)(C)C)c2)n1 | 0.684 | ≤ 4.74 mL/min/kg | 21.4 mL/min/kg |  |  | 22.6 µg/mL (≈ 85 µM)
12 | CC(C)C(=O)N1CC(Cc2nccc3ccn(C)c23)C1 | 7.28 | ≤ 4.74 mL/min/kg | 51.9 mL/min/kg |  |  | 62.7 µg/mL (≈ 231 µM)
13 | COc1ccc(-c2c(C)n[nH]c2C)cn1 | 0.678 | ≤ 4.74 mL/min/kg | 52.2 mL/min/kg |  |  | 14.7 µg/mL (≈ 72.4 µM)
14 | Cn1cc(NC(=O)[C@@H]2CCCCN2C(=O)OC(C)(C)C)cn1 | 4.1 | ≤ 4.74 mL/min/kg | 28.2 mL/min/kg |  |  | 67.2 µg/mL (≈ 218 µM)
15 | CNc1cc(CC2CCNCC2)ncn1 |  |  |  |  |  | 30.6 µg/mL (≈ 148 µM)
16 | CSCC(=O)N1CCN(C(=O)CSC)C2(CCCCC2)C1 | 5.33 | 57.8 mL/min/kg | 868 mL/min/kg |  |  | 50.5 µg/mL (≈ 153 µM)
17 | NC(=O)c1csc(CN2CCc3cc(F)ccc3C2)c1 | 0.686 | 5.46 mL/min/kg | 252 mL/min/kg |  |  | 
18 | c1ccc(C2(CNc3nc4ccccc4o3)CCOCC2)cc1 |  | 129 mL/min/kg | 3400 mL/min/kg |  |  | 
19 | Cc1cc(C)cc(C(=O)NCCCNc2ncccn2)c1 |  |  |  |  |  | 52.5 µg/mL (≈ 185 µM)
20 | CC(C)(C)C(=O)Nc1nnc(Cc2ccccc2)s1 | 1.19 | ≤ 4.74 mL/min/kg | 658 mL/min/kg |  |  | 35.2 µg/mL (≈ 128 µM)
21 | CN(C)S(=O)(=O)CCCN1CCc2ccccc2CC1 | 0.6 | 15.9 mL/min/kg | 716 mL/min/kg |  |  | 
22 | N#CC1(CN2CCc3cc(-c4ccccc4)oc3C2)CC1 | 0.273 | 72.7 mL/min/kg | 503 mL/min/kg |  |  | 30.3 µg/mL (≈ 109 µM)
23 | CC(C)CN1CC[C@H](c2nc3ccc(C#N)cc3[nH]2)C1 | 1.46 | 6.69 mL/min/kg | 76.3 mL/min/kg |  |  | 36.7 µg/mL (≈ 137 µM)
24 | NC(=O)Cn1nnc(-c2ccccc2)n1 |  |  |  |  |  | 11 µg/mL (≈ 54.1 µM)
25 | O=C(/C=C/N1C[C@H]2C[C@@H]1CN2c1ccccn1)c1ccccc1O | 0.976 |  |  |  |  | 42 µg/mL (≈ 131 µM)
26 | COc1cc(CN2CCCNCC2)cc2c1OCO2 | 8.38 | 5.17 mL/min/kg | 72.9 mL/min/kg |  |  | 
27 | Cc1n[nH]c(C2CCN(C(=O)NC3CCN(c4ccc(F)cc4)CC3)CC2)n1 | 22.9 | ≤ 4.74 mL/min/kg | 38.3 mL/min/kg |  |  | 
28 | CO[C@H]1COCCN(C(=O)c2cccnc2)C1 | 1.2 | ≤ 4.74 mL/min/kg | ≤ 10.7 mL/min/kg |  |  | 34.8 µg/mL (≈ 147 µM)
29 | NS(=O)(=O)C#Cc1ccccc1 |  | 10.6 mL/min/kg | ≤ 10.7 mL/min/kg |  |  | 

The next lines start with the values.

Row | MDR1-MDCK efflux ratio | intrinsic clearance, human liver microsomes | intrinsic clearance, rat liver microsomes | fraction unbound, human plasma | fraction unbound, rat plasma | aqueous solubility | Structure (SMILES)
30 | 13 | 37.9 mL/min/kg | 545 mL/min/kg | 0.167 | 0.123 |  | O=C(Nc1cccc2ncccc12)[C@H]1CCCN(S(=O)(=O)c2ccccc2)C1
31 | 16.9 | 92 mL/min/kg | 2150 mL/min/kg |  |  |  | COc1ccc(C)cc1S(=O)(=O)NCCC(=O)Nc1ccccc1C
32 | 1.35 | ≤ 4.74 mL/min/kg | ≤ 10.7 mL/min/kg |  |  | 40.8 µg/mL (≈ 157 µM) | Cc1ccc(C(=O)N(C)Cc2c(C)noc2C)cn1
33 | 0.712 | 94.2 mL/min/kg | 670 mL/min/kg |  |  | 6.32 µg/mL (≈ 17.8 µM) | Cc1cc(N)n(-c2ncnc3sc(C)c(-c4ccc(Cl)cc4)c23)n1
34 | 0.502 |  |  |  |  | 0.69 µg/mL (≈ 2.15 µM) | Cc1ccc(C(=O)COC(=O)c2cc(O)nc3ccccc23)cc1
35 | 2.85 | ≤ 4.74 mL/min/kg | 132 mL/min/kg |  |  | 61.2 µg/mL (≈ 145 µM) | O=C(Nc1ccn(Cc2ccccn2)n1)c1c(F)cccc1I
36 |  |  |  |  |  | 0.53 µg/mL (≈ 1.07 µM) | CC(=O)c1c(C)n(S(=O)(=O)c2ccc(C)cc2)c2ccc(NS(=O)(=O)c3ccc(C)cc3)cc12
37 | 2.28 | 7.52 mL/min/kg | 214 mL/min/kg |  |  | 33.6 µg/mL (≈ 119 µM) | Cc1ccc(Cn2nccc2NC(=O)c2ccncc2)o1
38 |  | 39.1 mL/min/kg | 304 mL/min/kg |  |  |  | Cc1nccc(-c2cccc(NCC(=O)Nc3ccc(F)cc3)c2)n1
39 |  | 986 mL/min/kg | 184 mL/min/kg |  |  |  | O=C(COC(=O)c1cc(O)nc2ccccc12)c1ccc(Oc2c(Cl)cccc2[N+](=O)[O-])cc1
40 | 0.951 | 150 mL/min/kg | 724 mL/min/kg |  |  | 25.7 µg/mL (≈ 65.5 µM) | Cc1cccc(NC(=O)CN2CCCN(c3ccc(C(F)(F)F)cn3)CC2)c1
41 |  |  |  |  |  | 0.25 µg/mL (≈ 0.72 µM) | COc1ccc(-c2onc(C)c2-c2cnn(-c3ccccc3)c2)c(O)c1
42 | 1.06 | 11.1 mL/min/kg | 399 mL/min/kg |  |  | 47.4 µg/mL (≈ 165 µM) | Cc1ccc(F)cc1CNc1cc(C(=O)N(C)C)ccn1
43 |  | ≤ 4.74 mL/min/kg | ≤ 10.7 mL/min/kg |  |  |  | Cc1ccc(OCC(=O)Nc2cc(C)on2)nc1
44 |  | 8.57 mL/min/kg | 191 mL/min/kg | 0.0539 | 0.0286 | 2.5 µg/mL (≈ 8.03 µM) | CC(C)(C)c1ccc(-c2nc3n(c(=O)c2C#N)CCS3)cc1
45 | 9.93 |  |  |  |  |  | O=C1CCCN1c1ccc(S(=O)(=O)Nc2cccc(-c3nnc4n3CCC4)c2)cc1

— the Biogen ADME set (Fang et al. 2023)
